From patent US20230248695A1, “COMBINATIONS OF CANCER THERAPEUTICS” (Merck Patent GmbH, priority 2020, published 2023)
Entries after “also recorded” stand apart in the source; their conditions may differ.

Key:
[1] = system: RCC patient derived xenografts (PDX); assay: In vivo efficacy in sixteen RCC patient derived tumor xenograft models (PDX); parameters: species or system female NMRI nu/nu mice (human tumor xenografts); details: 16 s.c. RCC PDX models, n = 5 per group; p.o. up to 70 days; Compound A 100 mg/kg QD, axitinib 4 mg/kg BID, cabozantinib 10 mg/kg QD; progression = RTV 173%
Protocol: All experiments and protocols were approved by animal welfare body and local authorities, and were conducted according to all applicable international, national and local laws and guidelines. Only animals with unobjectionable health were selected to enter testing procedures. The animals (female NMRI nu/nu mice (NMRI-Foxn1^nu); Envigo RMS GmbH, Netherlands) were delivered at the age of four to six weeks and were used for experiments after at least one week of acclimatization. Animals were arbitrarily numbered during tumor implantation using radio frequency identification transponders. Each cage was labeled with a record card indicating all relevant experimental details.
The tumor xenografts were derived from surgical specimens from human cancer patients. Following excision at surgery, tumor pieces were subcutaneously implanted into immunodeficient mice and are therefore referred to as patient-derived tumor xenografts (PDX). Establishment and characterization of the PDXs was performed following their primary implantation into immunodeficient mice (passage 1). The tumor xenografts were passaged until establishment of a stable growth pattern.
Axitinib: A dosing solution of 0.4 mg/ml for dosing at 4 mg/kg/dose was prepared daily by dissolving 6.4 mg dry matter in 16 ml vehicle and stirring for at least 30 min. If necessary, the solution was sonicated for 2 min.
Cabozantinib: A dosing solution of 1 mg/ml for dosing at 10 mg/kg/dose was prepared directly before administration by slowly adding 0.2 ml 100% propylene glycol to 12 mg cabozantinib. It was stirred vigorously on a magnetic stirrer until a fine suspension with clumps formed, followed by vortexing briefly for 15-20 s. A further 3.4 ml propylene glycol was added and the stirring and vortexing steps were repeated. Then 600 µl 100% Tween 80 was added while stirring continuously followed by vortexing briefly for 15-20 s. The solution was then sonicated for 10 min and 7.8 ml D5W was added while stirring slowly. At this stage the solution was clear with lots of air bubbles. Care was taken to exclude these when drawing the suspension into a syringe for administration of therapy.
The resulting white suspension was stirred for two hours on a magnetic stirrer with a hot plate (Phoenix Instruments, model RSM-10HS) at 50° C. The suspension was brought to room temperature and mixed well each time before transferring to a syringe for dosing.
Tumor cell inoculation: Tumor fragments were obtained from xenografts in serial passage in nude mice. After removal from donor mice, tumors were cut into fragments (3-4 mm edge length) and placed in PBS containing 10% penicillin/streptomycin. Recipient animals were anesthetized by inhalation of isoflurane and received unilateral or bilateral tumor implants subcutaneously in the flank.
Randomization: Animals and tumor implants were monitored daily until solid tumor growth was detectable in a sufficient number of animals. At randomization, the volume of growing tumors was determined. […] Animals not used for experiments where available were used as satellite animals for PD sampling. The day of randomization was designated as day 0 of the experiment. The time from implantation to randomization at a standard tumor volume is expressed in days as “Induction time (IT)”. Induction times of tumors are routinely recorded, and a median IT is calculated for characterization purposes.
Tumor measurements and calculations: Tumor length (L) and width (W) were measured twice weekly by calipers. The tumor volume was calculated using the formula L×W^2/2. Relative volumes of individual tumors (individual RTVs) for Day x were calculated by dividing the absolute individual tumor volume on Day x (Tx) by the absolute individual tumor volume of the same tumor on the day of randomization (Tr) multiplied by 100%.

[2] = clinical trials; cited from earlier work

Compound | tumor growth / tumor progression under monotherapy treatment [1] | neurotoxicity [2]
O=C(NCc1cc(F)cc(F)c1)[C@@]1(O)CCN(c2ccc3[nH]ccc3c2)C1=O [Compound A, (S)-3-Hydroxy-1-(1H-indol-5-yl)-2-oxo-pyrrolidine-3-carboxylic acid 3,5-difluoro-benzylamide] | progressed under monotherapy treatment; also recorded: did not strongly inhibit tumor growth, and tumors progressed under treatment | –
CNC(=O)c1ccccc1Sc1ccc2c(/C=C/c3ccccn3)n[nH]c2c1 [axitinib, N-methyl-2-({3-[(1E)-2-(pyridin-2-yl)ethenyl]-1H-indazol-6-yl}sulfanyl)benzamide] | progressed under monotherapy treatment; also recorded: did not strongly inhibit tumor growth, and tumors progressed under treatment | –
COc1cc2nccc(Oc3ccc(NC(=O)C4(C(=O)Nc5ccc(F)cc5)CC4)cc3)c2cc1OC [cabozantinib, N-{4-[(6,7-dimethoxyquinolin-4-yl)oxy]phenyl}-N′-(4-fluorophenyl)cyclopropane-1,1-dicarboxamide] | progressed under monotherapy treatment; also recorded: did not strongly inhibit tumor growth, and tumors progressed under treatment | –
CO[C@@H]1[C@H](OC(=O)/C=C/C=C/C=C/C=C/C(=O)O)CC[C@]2(CO2)[C@H]1[C@@]1(C)O[C@@H]1CC=C(C)C [fumagillin] | – | pronounced neurotoxicity
